Where “and” joins values, the source holds several entries; their conditions need not be identical. Equal values may be shown once. Read-outs that look alike come from different tables or passages of the source.
Key:
CYP3A4 (BDGentest) = molecular target: T1, CYP3A4 (BDGentest) (Homo sapiens, UniProt P08684); assay: New CYP3A4 bioassay with dibenzylfluorescein (DBF) substrate (Foster et al. 2011); assay type: biochemical; conditions: for IC50: human microsomes; for % Activity relative to dillapiol = 1: new CYP3A4 bioassay, inhibition relative to dillapiol
T1 construct: purchased BDGentest
Description: (§1) In the second set of experiments, new CYP3A4 enzyme inhibition assays were conducted with a designed set of analogs and newer method described by Foster et al. (J. Agric. Food Chem, 2011, 59(9):5159-5163). This assay using the substrate dibenzylfluorescein (DBF) is considered more representative of CYP3A4 activity as compared to the benzyloxyresorufin assay previously used (Budzinski et al., 2000, Phytomedicine, 7(4):273-282).
Aliquots (10 μL) of stock solutions of the undiluted products were screened for their ability to inhibit CYP3A4 (BDGentest) metabolism of the non-fluorescent dibenzylfluorescein (DBF) substrates to the fluorescent metabolite using an in vitro fluorometric microtiter plate assay (CytoFluor Series 4000 multi-well plate reader). Briefly, assays were performed with 10 μL of product in clear-bottom, opaque-welled microtiter plates (96 well, Corning Costar). Control and control blank wells contained 5% ethanol, and test and test blank wells contained the product. All wells tested contained distilled water, β-nicotinamide adenine dinucleotide phosphate, reduced form (NADPH, Sigma Chemicals), and the enzyme substrate DBF (final concentration of 1 μM/well), for a total reaction volume of 200 μL. Control and test wells also contained live isozyme, within human microsomes, in phosphate buffer solution (PBS; 0.5 M, pH 7.4), and control blank and test blank wells contained denatured isoenzyme in PBS. Fluorescence was measured at 485 nm excitation and 530 nm emission, with a gain of 50.

human cytochrome CYP3A4 = human cytochrome CYP3A4 (Homo sapiens, UniProt P08684); assay: CYP3A4 inhibition assay of dillapiol derivatives (earlier benzyloxyresorufin assay); assay type: biochemical; conditions: for Rel. Activity Dillapiol = 1.0: CYP3A4 inhibition relative to dillapiol
Description: A suite of dillapiol derivatives were synthesized and assayed for their capacity to inhibit human cytochrome CYP3A4. For each molecule, experimental IC50 values for CYP3A4 inhibition were determined. These IC50 values together with the log of the octanol-water partition coefficient (logP) and molecular refractivity (MR) are shown in Table 1, and were used as parameters to model a quantitative structure-activity relationship (QSAR). The resulting equations were used to guide the design of further derivatives with enhanced CYP3A4 inhibition.
as §1

[1] = DBF substrate 1 μM, read-out: IC50 (converted)
[2] = Table 1, CYP3A4 inhibition, read-out: IC50

Sequence of human cytochrome CYP3A4 (P08684 whole entry): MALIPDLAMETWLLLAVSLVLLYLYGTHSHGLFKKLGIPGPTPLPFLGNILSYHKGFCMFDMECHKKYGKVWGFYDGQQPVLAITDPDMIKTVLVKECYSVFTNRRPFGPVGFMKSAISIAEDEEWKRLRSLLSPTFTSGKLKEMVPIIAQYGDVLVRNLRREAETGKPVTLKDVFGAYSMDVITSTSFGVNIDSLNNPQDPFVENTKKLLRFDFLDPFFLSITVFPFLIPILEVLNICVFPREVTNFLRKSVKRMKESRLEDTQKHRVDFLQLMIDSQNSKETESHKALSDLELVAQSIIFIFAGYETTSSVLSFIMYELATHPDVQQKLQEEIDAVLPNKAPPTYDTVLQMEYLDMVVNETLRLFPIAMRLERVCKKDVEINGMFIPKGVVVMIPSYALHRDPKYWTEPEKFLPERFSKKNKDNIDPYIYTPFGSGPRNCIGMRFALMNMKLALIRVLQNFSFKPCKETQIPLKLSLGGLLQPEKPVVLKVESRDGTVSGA
T1 sequence (P08684 whole entry): as above

SMILES	IC50 (CYP3A4 (BDGentest); [1])	% Activity relative to dillapiol = 1 (CYP3A4 (BDGentest))	other results
COc1c(CCCOC(=O)C2CCCCC2)cc2c(c1OC)OCO2	1.9 µM	4.83	
C=CCc1cc2c(c(SCc3ccccc3)c1O)OCO2 [Compound 24]			Rel. Activity Dillapiol = 1.0 (human cytochrome CYP3A4; Table 1): 1.6
O=C(CCCC/C=C/c1ccc2c(c1)OCO2)OCCCO	4.1 µM and 4.08 µM	2.2	
C=CCc1cc2c(c(S(C)(=O)=O)c1OC)OCO2 [Compound 15]			Rel. Activity Dillapiol = 1.0 (human cytochrome CYP3A4; Table 1): 0.37; IC50 (human cytochrome CYP3A4; [2]): 1100 µM
COc1c(CCCOC(=O)C(c2ccccc2)c2ccccc2)cc2c(c1OC)OCO2 [drawing 58]	0.434 µM	21.15	
COc1ccc(OC)c(COc2cc3c(cc2CCCOC(=O)C(c2ccccc2)c2ccccc2)OCO3)c1 [Compound 69]			CYP3A4 inhibition (in words) (CYP3A4 (BDGentest)): strong CYP3A4 inhibitors
COc1c(CCCOC(C)=O)cc2c(c1OC)OCO2	9.22 µM and 9.21 µM	1	
O=C(OCCCc1cc2c(cc1OCc1ccccc1)OCO2)c1ccc2c(c1)OCO2	1.4 µM and 1.38 µM	6.6	
C=CCc1cc2c(c(Sc3ccccc3)c1OC)OCO2 [Compound 16]			Rel. Activity Dillapiol = 1.0 (human cytochrome CYP3A4; Table 1): 0.84; IC50 (human cytochrome CYP3A4; [2]): 480 µM
C=CCc1cc2c(c([S+]([O-])c3ccccc3)c1OC)OCO2 (centres unmarked) [Compound 26]			Rel. Activity Dillapiol = 1.0 (human cytochrome CYP3A4; Table 1): 2.7; IC50 (human cytochrome CYP3A4; [2]): 150 µM
OCCCCc1ccc2c(c1)OCO2	> 26 µM		
O=C(O)CCCC/C=C/c1ccc2c(c1)OCO2	> 20.1 µM		
C=CCc1cc2c(c(COCC(=O)OCC)c1OC)OCO2 [Compound 13]			CYP3A4 inhibition compared with dillapiol (in words) (human cytochrome CYP3A4; Table 1): at least four times lower than dillapiol; Rel. Activity Dillapiol = 1.0 (human cytochrome CYP3A4; Table 1): 4.2; IC50 (human cytochrome CYP3A4; [2]): 98 µM
COc1c(CCC(C)O)cc2c(c1OC)OCO2 (centres unmarked)	> 20 µM		
C/C=C(\C)C(=O)OCCCc1cc2c(c(OC)c1OC)OCO2	1.55 µM	5.9	
CCCc1cc2c(cc1OC)OCO2			IC50 (CYP3A4 (BDGentest); IC50, DBF substrate 1 μM): > 26 µM
C=CCc1cc2c(c(SC)c1OC)OCO2 [Compound 18]			IC50 (human cytochrome CYP3A4): 320 µM; Rel. Activity Dillapiol = 1.0 (human cytochrome CYP3A4; Table 1): 1.3
COc1c(CCCOCc2ccc(F)cc2)cc2c(c1OC)OCO2	10.3 µM	0.89	
C=CCc1cc2c(c(C(O)CCCCCCCC)c1OC)OCO2 (single isomer, unassigned) [Compound 7]			Rel. Activity Dillapiol = 1.0 (human cytochrome CYP3A4; Table 1): 2.2; IC50 (human cytochrome CYP3A4; [2]): 190 µM
COc1cc2c(cc1CCCO)OCO2	4.05 µM and 4.04 µM	2.25	
C=CCc1cc2c(c(Sc3ccc(OC)cc3)c1OC)OCO2 [Compound 22]			Rel. Activity Dillapiol = 1.0 (human cytochrome CYP3A4; Table 1): 0.67; IC50 (human cytochrome CYP3A4; [2]): 660 µM
C=CCc1cc2c(c([S+]([O-])Cc3ccccc3)c1OC)OCO2 (centres unmarked) [Compound 27]			CYP3A4 inhibition compared with dillapiol (in words) (human cytochrome CYP3A4; Table 1): at least four times lower than dillapiol; Rel. Activity Dillapiol = 1.0 (human cytochrome CYP3A4; Table 1): 6.4; IC50 (human cytochrome CYP3A4; [2]): 64 µM

SMILES	IC50 (CYP3A4 (BDGentest); [1])	% Activity relative to dillapiol = 1 (CYP3A4 (BDGentest))	other results
COc1c(CCCOC(=O)CCCc2ccccc2)cc2c(c1OC)OCO2	4.14 µM	2.22	
COc1c(CCCOC(=O)c2ccc3c(c2)OCO3)cc2c(c1OC)OCO2	2.63 µM	3.49	
C=CCc1cc2c(c(SCc3ccccc3)c1OC)OCO2 [Compound 25]			CYP3A4 inhibition compared with dillapiol (in words) (human cytochrome CYP3A4; Table 1): at least four times lower than dillapiol; Rel. Activity Dillapiol = 1.0 (human cytochrome CYP3A4; Table 1): 9 and 9.3; IC50 (human cytochrome CYP3A4; [2]): 44 µM
C=CCc1cc2c(c(SC)c1O)OCO2 [Compound 19]			Rel. Activity Dillapiol = 1.0 (human cytochrome CYP3A4; Table 1): 1.0; IC50 (human cytochrome CYP3A4; [2]): 420 µM
OCCCc1cc2c(cc1OCc1ccccc1)OCO2	3 µM	3	
C=CCc1cc2c(cc1O)OCO2 [Compound 14]			Rel. Activity Dillapiol = 1.0 (human cytochrome CYP3A4; Table 1): 0.75; IC50 (human cytochrome CYP3A4; [2]): 550 µM
C=CCc1cc2c(c(CC=C)c1OC)OCO2 [Compound 9]			IC50 (human cytochrome CYP3A4): 810 µM; Rel. Activity Dillapiol = 1.0 (human cytochrome CYP3A4; Table 1): 2.0
COc1c(CCCOC(=O)/C=C/c2ccccc2)cc2c(c1OC)OCO2	2.38 µM	3.86	
COc1ccc(OC)c(COc2cc3c(cc2CCCOC(=O)C(c2ccccc2)c2ccccc2)OCO3)c1 [drawing 79]	0.23 µM	41	
C=CCc1cc2c(cc1O)OCO2 [drawing 54]	> 28.1 µM		
C=CCc1cc2c(c(/C=C/C(=O)OC)c1OC)OCO2 [Compound 6]			Rel. Activity Dillapiol = 1.0 (human cytochrome CYP3A4; Table 1): 1.7; IC50 (human cytochrome CYP3A4; [2]): 240 µM
COc1c(CCCOC(=O)c2ccc(Cl)cc2Cl)cc2c(c1OC)OCO2	1.4 µM and 1.43 µM	6.56	
C=CCc1cc2c(c(OCCCCCCCC)c1OC)OCO2 [Compound 3]			Rel. Activity Dillapiol = 1.0 (human cytochrome CYP3A4; Table 1): 1.3; IC50 (human cytochrome CYP3A4; [2]): 320 µM
COc1ccc(OC)c(COc2cc3c(cc2CCCOC(=O)c2ccccc2)OCO3)c1 [drawing 60]	0.36 µM and 0.355 µM	25.5	
OC(CCCC/C=C/c1ccc2c(c1)OCO2)(c1ccccc1)c1ccccc1 [Compound 59]	0.54 µM and 0.517 µM	17	
COc1c(CCCOC(=O)Cc2ccccc2)cc2c(c1OC)OCO2		4.83	IC50 (CYP3A4 (BDGentest); IC50, DBF substrate 1 μM): 1.9 µM
COc1c(CCCOCc2ccccc2)cc2c(c1OC)OCO2	6.66 µM	1.38	
O=C(OCCCc1cc2c(cc1OCc1ccccc1)OCO2)C(c1ccccc1)c1ccccc1 [Compound 70]		4	CYP3A4 inhibition (in words) (CYP3A4 (BDGentest)): strong CYP3A4 inhibitors
COc1cc2c(cc1CCCOC(=O)c1ccccc1)OCO2 [Compound 63]			CYP3A4 inhibition (in words) (CYP3A4 (BDGentest)): strong CYP3A4 inhibitors
C=CCc1cc2c(c(Br)c1O)OCO2 [Compound 17]			Rel. Activity Dillapiol = 1.0 (human cytochrome CYP3A4; Table 1): 0.68; IC50 (human cytochrome CYP3A4; [2]): 600 µM
COc1c(CCCOC(=O)c2ccc([N+](=O)[O-])cc2)cc2c(c1OC)OCO2	> 13 µM		
C=CCc1cc2c(c(CC=C)c1O)OCO2 [Compound 11]			Rel. Activity Dillapiol = 1.0 (human cytochrome CYP3A4; Table 1): 1.9; IC50 (human cytochrome CYP3A4; [2]): 210 µM

SMILES	IC50 (CYP3A4 (BDGentest); [1])	% Activity relative to dillapiol = 1 (CYP3A4 (BDGentest))	other results
C=CCc1cc2c(cc1OC)OCO2			IC50 (CYP3A4 (BDGentest); IC50, DBF substrate 1 μM): > 26 µM
C=CCc1cc2c(cc1OCc1ccccc1)OCO2	1.44 µM and 1.43 µM	6.37	
COc1c(CCCC(c2ccccc2)c2ccccc2)cc2c(c1OC)OCO2	> 20 µM		
COc1c(CCCOC(=O)C(c2ccccc2)c2ccccc2)cc2c(c1OC)OCO2 [Compound 48]			CYP3A4 inhibition (in words) (CYP3A4 (BDGentest)): potent inhibitor
C=CCc1cc2c(cc1OCc1cc(OC)ccc1OC)OCO2	2.15 µM	4.27	
O=C(OCCCc1cc2c(cc1OCc1ccccc1)OCO2)C(c1ccccc1)c1ccccc1 [drawing 80]	0.62 µM and 0.624 µM	14	
COc1cc2c(cc1CCCOC(=O)C(c1ccccc1)c1ccccc1)OCO2 [Compound 61]	0.47 µM	19.5	CYP3A4 inhibition (in words) (CYP3A4 (BDGentest)): strong CYP3A4 inhibitors
COc1ccc(OC)c(COc2cc3c(cc2CCCOC(=O)c2ccccc2)OCO3)c1 [Compound 50]			CYP3A4 inhibition (in words) (CYP3A4 (BDGentest)): strong CYP3A4 inhibitors
COc1cc2c(cc1CCCOC(=O)c1ccccc1)OCO2 [drawing 73]	2.07 µM	4.4	
COc1c(CCCCO)cc2c(c1OC)OCO2	11.6 µM	0.8	
COc1c(CCCOC(=O)c2ccccc2Cl)cc2c(c1OC)OCO2	5.27 µM	1.75	
COc1c(CCCOC(=O)c2ccc(Cl)cc2)cc2c(c1OC)OCO2	1.56 µM	5.89	
COc1c(C/C=C/Cc2cc3c(c(OC)c2OC)OCO3)cc2c(c1OC)OCO2 [Compound 56]	1.8 µM	5.1	% Activity relative to dillapiol = 1 (CYP3A4 (BDGentest); listed as drawing 59): 5.1
COc1c(CC/C=C/C(=O)NC(C)C)cc2c(c1OC)OCO2	2.1 µM	4.37	
COc1c(CCCOC(=O)C(C)(C)C)cc2c(c1OC)OCO2	2.78 µM and 2.77 µM	3.3	
COc1c(CCCC(O)(c2ccccc2)c2ccccc2)cc2c(c1OC)OCO2	1.06 µM	8.7	
O=C(/C=C/c1ccccc1)OCCCc1cc2c(cc1OCc1ccccc1)OCO2	8 µM and 7.92 µM	1.125	
CCCCCC(=O)OCCCc1cc2c(c(OC)c1OC)OCO2	3.25 µM	2.82	
COc1cc2c(cc1CCCOC(=O)/C=C/c1ccccc1)OCO2	4.73 µM	1.94	
O=C(OCCCc1cc2c(cc1OCc1ccccc1)OCO2)c1ccccc1	3.9 µM and 3.84 µM	2.3	
COc1c(C/C=C/Cc2cc3c(c(OC)c2OC)OCO3)cc2c(c1OC)OCO2 [drawing 66]	1.44 µM	6.3	

Source: patent US9386767B2, “Derivatives of dillapiol and related monolignans and use thereof” (UNIVERSITY OF OTTAWA, priority 2011, dated 2016)
